PubChem BioAssay AID330 (DTP/NCI, 2004)
Several values for one entry are separate records, joined by “and”; a condition that tells them apart may be missing. Equal entries are not always repeated. Toxic doses and inconclusive results are not listed.

Tested on: P388 leukemia ip, CD2F1 mice, survival T/C
Experiment: NCI In Vivo Anticancer Drug Screen. Data for tumor model P388 Leukemia (intraperitoneal) in CD2F1 (CDF1) mice
Settings: endpoint: median survival time, higher = longer survival
Outline: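 Mice carrying the transplanted tumor received test compound or vehicle. Survival was recorded in each group, and the value is the treated-group measurement divided by that of the vehicle-treated control group.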

[1] = dose: 100.0 mg/kg/injection, schedule: Q01DX009 (ip), vehicle: saline with Tween-80
[2] = dose: 60.0 mg/kg/injection, schedule: Q01DX005 (ip), vehicle: saline with Tween-80
[3] = dose: 120.0 mg/kg/injection, schedule: Q01DX005 (ip), vehicle: saline with Tween-80
[4] = dose: 240.0 mg/kg/injection, schedule: Q01DX005 (ip), vehicle: saline with Tween-80
[5] = dose: 50.0 mg/kg/injection, schedule: Q01DX009 (ip), vehicle: Klucel (hydroxypropylcellulose) (HPC)
[6] = dose: 100.0 mg/kg/injection, schedule: Q01DX009 (ip), vehicle: Klucel (hydroxypropylcellulose) (HPC)
[7] = dose: 200.0 mg/kg/injection, schedule: Q01DX009 (ip), vehicle: Klucel (hydroxypropylcellulose) (HPC)
[8] = dose: 25.0 mg/kg/injection, schedule: Q01DX009 (ip), vehicle: saline
[9] = dose: 50.0 mg/kg/injection, schedule: Q01DX009 (ip), vehicle: saline
[10] = dose: 50.0 mg/kg/injection, schedule: Q01DX005 (ip), vehicle: saline with Tween-80
[11] = dose: 100.0 mg/kg/injection, schedule: Q01DX005 (ip), vehicle: saline with Tween-80
[12] = dose: 200.0 mg/kg/injection, schedule: Q01DX005 (ip), vehicle: saline with Tween-80
[13] = dose: 50.0 mg/kg/injection, schedule: Q01DX009 (ip), vehicle: saline with Tween-80
[14] = dose: 200.0 mg/kg/injection, schedule: Q01DX009 (ip), vehicle: saline with Tween-80
[15] = dose: 25.0 mg/kg/injection, schedule: Q01DX009 (ip), vehicle: saline with Tween-80
[16] = dose: 50.0 mg/kg/injection, schedule: Q01DX005 (ip), vehicle: Klucel (hydroxypropylcellulose) (HPC)
[17] = dose: 100.0 mg/kg/injection, schedule: Q01DX005 (ip), vehicle: Klucel (hydroxypropylcellulose) (HPC)
[18] = dose: 200.0 mg/kg/injection, schedule: Q01DX005 (ip), vehicle: Klucel (hydroxypropylcellulose) (HPC)
[19] = dose: 12.5 mg/kg/injection, schedule: Q01DX005 (ip), vehicle: saline with Tween-80
[20] = dose: 25.0 mg/kg/injection, schedule: Q01DX005 (ip), vehicle: saline with Tween-80

Cc1ccc(NS(=O)(=O)c2ccc([N+](=O)[O-])cc2)cc1
T/C [1]: 100 % of control
T/C (dose: 100.0 mg/kg/injection, schedule: Q04DX003 (ip), vehicle: saline with Tween-80): 100 % of control
T/C (dose: 200.0 mg/kg/injection, schedule: Q04DX003 (ip), vehicle: saline with Tween-80): 100 % of control
T/C (dose: 400.0 mg/kg/injection, schedule: Q01DX009 (ip), vehicle: saline with Tween-80): 90 % of control
T/C (dose: 400.0 mg/kg/injection, schedule: Q04DX003 (ip), vehicle: saline with Tween-80): 100 % of control

O=[N+]([O-])c1ccc(OP(=O)(Oc2ccc([N+](=O)[O-])cc2)N(CCCl)CCCl)cc1
T/C (dose: 18.8 mg/kg/injection, schedule: Q01DX001 (ip), vehicle: other): 108 % of control
T/C (dose: 37.5 mg/kg/injection, schedule: Q01DX001 (ip), vehicle: other): 112 % of control
T/C (dose: 75.0 mg/kg/injection, schedule: Q01DX001 (ip), vehicle: other): 113 % of control
T/C (dose: 150.0 mg/kg/injection, schedule: Q01DX001 (ip), vehicle: other): 115 % of control
T/C (dose: 300.0 mg/kg/injection, schedule: Q01DX001 (ip), vehicle: other): 99 % of control

COc1ccc(-n2cccc2/C=N\O)cc1OC
T/C [2]: 93 % of control
T/C [3]: 94 % of control
T/C [4]: 93 % of control

O=S(=O)(O)C(O)c1ccc(Cl)cc1Cl (stereo not given)
T/C (dose: 50.0 mg/kg/injection, schedule: Q01DX001 (ip), vehicle: Klucel (hydroxypropylcellulose) (HPC)): 100 % of control
T/C (dose: 100.0 mg/kg/injection, schedule: Q01DX001 (ip), vehicle: Klucel (hydroxypropylcellulose) (HPC)): 100 % of control
T/C (dose: 200.0 mg/kg/injection, schedule: Q01DX001 (ip), vehicle: Klucel (hydroxypropylcellulose) (HPC)): 116 % of control

C1CSCCSCCSCCSCCSCCS1
T/C [5]: 96 % of control
T/C [6]: 102 % of control
T/C [7]: 96 % of control

CC1(C)CC(=O)C2=C(SC3=C(C2)C(=O)CC(C)(C)S3)S1
T/C (dose: 60.0 mg/kg/injection, schedule: Q01DX005 (ip), vehicle: Klucel (hydroxypropylcellulose) (HPC)): 104 % of control
T/C (dose: 120.0 mg/kg/injection, schedule: Q01DX005 (ip), vehicle: Klucel (hydroxypropylcellulose) (HPC)): 100 % of control
T/C (dose: 240.0 mg/kg/injection, schedule: Q01DX005 (ip), vehicle: Klucel (hydroxypropylcellulose) (HPC)): 87 % of control

CN1CCCN(C(c2ccccc2)c2ccc(Br)cc2)CC1 (stereo not given)
T/C [8]: 97 % of control
T/C [9]: 103 % of control
T/C (dose: 100.0 mg/kg/injection, schedule: Q01DX009 (ip), vehicle: saline): 101 % of control and 91 % of control

OCCSCc1cnc2ccccn12
T/C [8]: 105 % of control
T/C [9]: 100 % of control

C=CCNc1nc2c(s1)c1c(O)c3c(O)c(C)c4c(c32)C(=O)C(C)(O/C=C\C(OC)C(C)C(OC(C)=O)C(C)C(O)C(C)C(O)C(C)/C=C/C=C(/C)C(=O)N1)O4 (stereo not given)
T/C (dose: 25.0 mg/kg/injection, schedule: Q01DX009 (ip), vehicle: Klucel (hydroxypropylcellulose) (HPC)): 98 % of control
T/C [5]: 100 % of control
T/C [6]: 100 % of control
T/C [7]: 94 % of control

[Cl][Sn]([c]1ccccc1)([c]1ccccc1)[c]1ccccc1
T/C (dose: 2.5 mg/kg/injection, schedule: Q01DX009 (ip), vehicle: saline): 100 % of control
T/C (dose: 5.0 mg/kg/injection, schedule: Q01DX009 (ip), vehicle: saline): 115 % of control

N#CC1=C(N)OC(/C=C/c2ccccc2)=C(C#N)C1c1ccccc1 (stereo not given)
T/C [10]: 97 % of control
T/C [11]: 98 % of control
T/C [12]: 89 % of control

N#CCCNc1ccc(NCCC#N)c2c1C(=O)c1c(O)ccc(O)c1C2=O
T/C (dose: 25.0 mg/kg/injection, schedule: Q04DX002 (ip), vehicle: saline with Tween-80): 103 % of control
T/C (dose: 50.0 mg/kg/injection, schedule: Q04DX002 (ip), vehicle: saline with Tween-80): 94 % of control
T/C (dose: 100.0 mg/kg/injection, schedule: Q04DX002 (ip), vehicle: saline with Tween-80): 101 % of control
T/C (dose: 200.0 mg/kg/injection, schedule: Q04DX002 (ip), vehicle: saline with Tween-80): 104 % of control

Cc1cc2c(=O)c3ccccc3oc2c(C#N)c1C
T/C (dose: 60.0 mg/kg/injection, schedule: Q01DX005 (ip), vehicle: saline): 97 % of control
T/C (dose: 120.0 mg/kg/injection, schedule: Q01DX005 (ip), vehicle: saline): 91 % of control
T/C (dose: 240.0 mg/kg/injection, schedule: Q01DX005 (ip), vehicle: saline): 89 % of control

CCOC(=O)c1nc2c(N)nc(-c3ccccc3)nc2[nH]c1=O
T/C [13]: 94 % of control
T/C [1]: 92 % of control
T/C [14]: 97 % of control

c1cnc2c(c1)C1OC(S2)c2cccnc2S1
T/C [13]: 102 % of control
T/C [1]: 97 % of control

COc1ccc(OC)c(/C=C/c2ccc([N+](=O)[O-])cc2)c1
T/C [5]: 100 % of control
T/C [6]: 100 % of control
T/C [7]: 86 % of control

Cc1cc(Cl)ccc1NC(=O)C1C(=O)CC(C)(C)CC1=O
T/C [10]: 93 % of control
T/C [11]: 101 % of control
T/C [12]: 111 % of control

Oc1c(CN2CCCCC2)ccc2cccnc12
T/C (dose: 0.78 mg/kg/injection, schedule: Q01DX009 (ip), vehicle: saline with Tween-80): 107 % of control and 92 % of control
T/C (dose: 1.56 mg/kg/injection, schedule: Q01DX009 (ip), vehicle: saline with Tween-80): 99 % of control and 97 % of control
T/C (dose: 3.12 mg/kg/injection, schedule: Q01DX009 (ip), vehicle: saline with Tween-80): 107 % of control
T/C (dose: 6.25 mg/kg/injection, schedule: Q01DX009 (ip), vehicle: saline with Tween-80): 99 % of control and 110 % of control and 122 % of control
T/C (dose: 12.5 mg/kg/injection, schedule: Q01DX009 (ip), vehicle: saline with Tween-80): 99 % of control and 106 % of control and 108 % of control
T/C [15]: 113 % of control
T/C [13]: 113 % of control

CCNCc1cc(Nc2nc(NC3CCC(N(C)C)CC3)c3ccccc3n2)ccc1OC (stereo not given)
T/C (dose: 5.0 mg/kg/injection, schedule: Q01DX009 (ip), vehicle: saline sonified): 100 % of control
T/C (dose: 10.0 mg/kg/injection, schedule: Q01DX009 (ip), vehicle: saline sonified): 109 % of control
T/C (dose: 20.0 mg/kg/injection, schedule: Q01DX009 (ip), vehicle: saline sonified): 113 % of control

CC(C)C12OC1C1OC13C1(C)CCC4=C(COC4=O)C1CC1OC13C2=O (stereo not given)
T/C (dose: 2.5 mg/kg/injection, schedule: Q01DX005 (ip), vehicle: saline + alcohol): 110 % of control
T/C (dose: 5.0 mg/kg/injection, schedule: Q01DX005 (ip), vehicle: saline + alcohol): 100 % of control
T/C (dose: 20.0 mg/kg/injection, schedule: Q01DX005 (ip), vehicle: saline + alcohol): 114 % of control

CC1N(/N=C/c2ccccc2)C(c2ccccc2)C(c2ccccc2)N1/N=C/c1ccccc1 (stereo not given)
T/C [16]: 99 % of control
T/C [17]: 98 % of control
T/C [18]: 99 % of control

CC1=C(C)C(=O)c2cc3c(-c4ccccc4)oc(-c4ccccc4)c3cc2C1=O
T/C [19]: 93 % of control
T/C [20]: 95 % of control
T/C [10]: 86 % of control and 96 % of control

Cc1c(C)c(C)c(S(=O)(=O)NCCCNS(=O)(=O)c2c(C)c(C)c(C)c(C)c2C)c(C)c1C
T/C [16]: 98 % of control
T/C [17]: 94 % of control
T/C [18]: 89 % of control

S=C(NCc1ccccc1)NNc1nnc(-c2ccccc2)c(-c2ccccc2)n1
T/C [19]: 96 % of control
T/C [20]: 94 % of control
T/C [10]: 91 % of control

O=c1[nH]cnc2nc3c(nc12)CCc1ccccc1-3
T/C [2]: 100 % of control
T/C [3]: 102 % of control
T/C [4]: 97 % of control

Cc1cc(N(C)C)cc(C)c1N=Nc1cc[n+]([O-])cc1
T/C [15]: 95 % of control
T/C [13]: 94 % of control
T/C [1]: 103 % of control
T/C [14]: 95 % of control

O=C(O)C1CCC[N-]1.[Cl][Pt][Cl] (stereo not given)
T/C (dose: 25.0 mg/kg/injection, schedule: Q04DX003 (ip), vehicle: water): 110 % of control
T/C (dose: 50.0 mg/kg/injection, schedule: Q04DX003 (ip), vehicle: water): 94 % of control
T/C (dose: 100.0 mg/kg/injection, schedule: Q04DX003 (ip), vehicle: saline): 157 % of control
T/C (dose: 150.0 mg/kg/injection, schedule: Q04DX003 (ip), vehicle: saline): 157 % of control
